This note sets out measurements from US6565876B1, “Carnitine and inositol phosphate-containing composition useful as dietary supplement or drug” (Sigma-Tau HealthScience S.p.A., priority 1999, dated 2003).

Assay [1] deals with swimming endurance in forced swimming. Description: Swimming endurance test. Format: in vivo, mice. The conditions noted are these: propionyl L-carnitine 200 mg/kg, IP6 100 mg/kg, oral on the three days preceding the test. How it is done:
Since IP6, which is rich in phosphate groups, is a useful energy reserve, a series of tests were performed to establish whether its administration may increase the swimming endurance time in mice submitted to forced swimming in a rectangular tank full of water, according to the technique described by Zheng (Zheng R. L., Acta Pharmacol. Sinica, 14:47, 1993) and whether its effect could be enhanced by using it in combination with a carnitine, such as, for instance, propionyl L-carnitine. The tests were performed on various groups of animals treated with propionyl L-carnitine (200 mg/kg) or with IP6 (100 mg/kg) alone or with the two compounds in combination. The compounds were administered orally on the three days preceding the test. In the animals thus treated, swimming endurance time was measured as compared to control animals.

In another assay the test system is ornithine decarboxylase. Description: Antiproliferative activity, teleocidin-induced ornithine decarboxylase in epidermis. Type of assay: in vivo, mice.
Assay [2] concerns collagen-induced type II arthritis. Nature of the assay: Collagen-induced arthritis test. Type of assay: in vivo. The following applies: mice; 200 mg/kg each, oral, from day of collagen injection to end of sixth week; oedema scores 1 to 4. How it is done: Confirmation of the anti-inflammatory effects of the composition according to the invention was obtained using as a test collagen-induced type II arthritis according to the technique described by […]. Exp. Med., 146:857, 1977). In this test, a group of mice were immunised by intradermal injection at the base of the tail of 100 μg of natural collagen emulsified in Freund complete adjuvant (Difco Labs., Detroit, USA). After three weeks, the animals thus treated were again injected intraperitoneally with the same dose of emulsified collagen. The treatment with propionyl […] (200 mg/kg) or with inositol hexaphosphate (200 mg/kg) or with the two compounds in combination was administered orally from the day of collagen injection up to the end of the sixth week. One group of animals received no treatment and served as a control group. The intensity of the oedema was assessed by assigning scores from 1 to 4.

Assay [3] has as its system carrageenin-induced oedema of the rat paw. Description: Carrageenin oedema test. Type of assay: in vivo. The conditions noted are these: 250 mg/kg each, oral. How it is done: To assess the anti-inflammatory effect of the new composition the carrageenin oedema test was used, in which rat paws are injected with carrageenin. The injection of 0.1 mL of 1% carrageenin solution (Sigma Chemical, St. Louis, Mo., USA) in the subplantar area of the rat's right paw induced marked oedema of the paw which reached its maximum intensity 4-5 hours after injection. The oedema was measured by mercury plethysmography at various different time intervals up to the fourth hour after carrageenin injection. Both propionyl L-carnitine (250 mg/kg) and IP6 (250 mg/kg) were administered orally half an hour prior to the subplantar carrageenin injection.
On the technique in general: The carrageenan paw model is a standard test of acute inflammation.

The test system of assay [4] is muscle lipoperoxidation (malondialdehyde). Nature of the assay: Muscle fatigue test, forced muscular exercise on moving belt, MDA in gastrocnemius muscle. The conditions noted are these: propionyl L-carnitine 200 mg/kg, IP6 100 mg/kg, three days before exercise; for MDA content in muscle after 5 min: gastrocnemius muscle 5 min after end of exercise; for MDA content in muscle after 30 min: gastrocnemius muscle 30 min after end of exercise. Format: in vivo, rats. How it is done: Forced muscular exercise was tested in various groups of rats by making them run on a moving belt at controlled speed and angle of tilt, as described by Li (Li J. X., Acta Pharmacologica Sinica, 20:126, 1999) and Husain (Husain K., Pathophysiology, 4:69, 1997). The animals were made to run on an approximately 5° slope and at a belt speed of 28 m/min. The animals' stamina reached the point of exhaustion after approximately 85 min of exercise. The test was carried out in groups of animals which, during the three days preceding exercise, received 200 mg/kg of propionyl L-carnitine or 100 mg/kg of IP6 alone or in combination. Five and thirty minutes, respectively, after the end of exercise, samples of gastrocnemius muscle were taken from the sacrificed animals and used for measuring the malondialdehyde (MDA) content as a marker for the level of lipoperoxidation by means of reaction with thiobarbituric acid according to the method described by Ohkawa (Ohkawa H., Anal. Biochem., 95:351, 1979).

For assay [5], the system named is platelets from healthy volunteers. Description: Anti-platelet aggregation activity (collagen-induced, Born method). Format: cell-based, human. The conditions noted are these: collagen 2.5 and 5 ng/mL, 10 min incubation, IP6 4 and 8 ng/mL. How it is done: The anti-platelet-aggregation activity of the composition according to the invention was assessed in blood samples from healthy volunteers. […] The aggregating agent used was collagen (2.5 ng/mL, 5 ng/mL) and the aggregation induced was measured photometrically according to the method described by Born (Born G. V., Nature, 194:927, 1962). […] The doses of propionyl L-carnitine used were 10 ng and 20 ng/mL, while the IP6 doses were 4 ng and 8 ng/mL.

The next assay deals with chick cerebral neurons. Description: Neuronal hypoxia, NaCN-induced, ATP assay. Format: cell-based. The following applies: propionyl L-carnitine 100 mg/L, IP6 50 mg/L; for ATP after reoxygenation time 0 / ATP after reoxygenation time 30 min: NaCN 1 mmol/L for 120 min; for ATP after reoxygenation time 0: reoxygenation 0; for ATP after reoxygenation time 30 min: reoxygenation 30 min. How it is done: To assess the protective activity of the composition according to the invention on hypoxia-induced damage at the neuronal level, tests were performed on cultures of chick cerebral neurons in which the reduction in cell respiration was induced by introducing NaCN into the cultures. […] The chick cerebral neuron cultures were prepared according to the technique described by […]., Nature, 281:378, 1979). Cytotoxic hypoxia was induced by adding NaCN to the culture medium to a final concentration of 1 mmol/L. After 120 min the medium was replaced by an NaCN-free medium, and the metabolism of the cells was blocked by washing with an iced buffer solution. The ATP assay was performed according to the procedure described by Werner (Werner A. J., Chromatogr. Biomed. Appl., 421:257, 1987).

Assay [6] deals with atherosclerotic vascular lesions of the abdominal aorta. Nature of the assay: Anti-atherosclerotic activity, atherogenic diet. The following applies: rats; atherogenic diet six weeks; daily 150 mg/kg propionyl carnitine, 100 mg/kg IP6. Format: in vivo, male Wistar rats. How it is done:
[…] according to the regimen proposed by Melinow (Melinow M. R., Atherosclerosis, 48:105, 1983). At the end of the sixth week of treatment, marked atherosclerotic vascular lesions had formed which were particularly pronounced at the abdominal aorta level. The severity of these lesions was evaluated by a morphometric method, measuring the thickness of the abdominal aorta and the intensity of the staining induced by Sudan IV with a progressive scoring system from 1 to 5. In these tests, the rats received daily administrations of 150 mg/kg of propionyl carnitine and 100 mg/kg of IP6, together with their atherogenic diets.

The mark [7] stands for this setting: mouse epidermis 5 h after teleocidin 5 μg/mouse s.c., oral pretreatment propionyl L-carnitine 200 mg/kg, IP6 100 mg/kg.
The mark [8] stands for this setting: rat paw oedema, half an hour before carrageenin.

For the molecule `O=P(O)(O)O[C@H]1[C@H](OP(=O)(O)O)[C@@H](OP(=O)(O)O)[C@H](OP(=O)(O)O)[C@@H](OP(=O)(O)O)[C@H]1OP(=O)(O)O` [IP6, inositol hexaphosphate], in assay [1], the “Swimming time” value came out at 136 ± 16 min and the “mean swimming endurance time versus controls (in words)” value is “slightly increased”. Also, in the assay with ornithine decarboxylase (setting [7]), the Ornithine decarboxylase activity is 1.95 ± 0.2 nMol of CO2/60 min/mg protein. The “reduction of the teleocidin-induced increase in ornithine decarboxylase activity (in words)” value with ornithine decarboxylase (oral pretreatment propionyl L-carnitine 200 mg/kg, IP6 100 mg/kg) is reported as “significantly reduced”. Besides, the oedema inhibition entry in assay [2] was “approximately 20%”. In addition, the “% inhibition after 1 h” value in assay [3] (rat paw oedema, half an hour before carrageenin, 1 h) is listed as 15 ± 1.1%. For the same molecule, in assay [3] (setting [8]), the “% inhibition after 2 h” value was found to be 20 ± 2.1% and the “% inhibition after 4 h” value worked out at 15 ± 0.6%. For the same molecule, the “inhibitory action on the inflammatory reaction induced by carrageenin (in words)” value in assay [3] (rat) is reported as “slight inhibitory action”. In assay [4], the “MDA content in muscle after 5 min” value was 200 ± 16 nmol/g (WW), the “MDA content in muscle after 30 min” value is 205 ± 8 nmol/g (WW) and the “muscle lipoperoxidation in muscle homogenate (in words)” value is “capable of reducing the levels of muscle lipoperoxidation”. In assay [5], the “aggregating action of collagen, reduced to” value is on record as 40%. Besides, in the assay with chick cerebral neurons, the “ATP after reoxygenation time 0” value came out at 12.4 ± 2.1 nmol g protein and the “ATP after reoxygenation time 30 min” value is on record as 16.9 ± 1.9 nmol g protein. For the same molecule, the “ATP levels after anoxia and reoxygenation (in words)” value in the assay on chick cerebral neurons (NaCN 1 mmol/L) is “a lesser reduction of ATP levels is observed as well as more rapid restoration of ATP levels”. Moreover, the “protective effect against atherosclerotic lesions (morphometric examination and Sudan IV staining)” value in assay [6] is “only a slight protective effect”.

Regarding `CCC(=O)OC(CC(=O)[O-])C[N+](C)(C)C` [Propionyl L-carnitine, propionyl L-carnitine], the “Swimming time” value in assay [1] was determined as 116 ± 19 min. In addition, in the assay with ornithine decarboxylase (setting [7]), the Ornithine decarboxylase activity is listed as 2.1 ± 0.2 nMol of CO2/60 min/mg protein. Besides, the oedema inhibition result in assay [2] is given as “no inhibitory effect”. In assay [3] (setting [8]), the “% inhibition after 2 h” value was found to be 15 ± 0.3% and the “% inhibition after 4 h” value came out at 8 ± 0.9%. Also, in assay [4], the “MDA content in muscle after 5 min” value is 210 ± 10 nmol/g (WW) and the “MDA content in muscle after 30 min” value was 212 ± 14 nmol/g (WW). The “inhibition of the aggregating action of collagen” value in assay [5] (propionyl L-carnitine 10 and 20 ng/mL) is listed as “does not inhibit”. In the assay with chick cerebral neurons, the “ATP after reoxygenation time 0” value is reported as 11.1 ± 1.6 nmol g protein and the “ATP after reoxygenation time 30 min” value came out at 16.3 ± 2.2 nmol g protein.

In the case of teleocidin, the Ornithine decarboxylase activity in the assay on ornithine decarboxylase (mouse epidermis 5 h after teleocidin 5 μg/mouse s.c. alone, no pretreatment) is 2.6 ± 0.4 nMol of CO2/60 min/mg protein.
